This note sets out measurements from patent US9724312B2, “Agent for the prevention, improvement or treatment of retinal disease” (ROHTO PHARMACEUTICAL CO., LTD., priority 2012, dated 2017).

For one experiment, the system named is ARPE-19. In words: Protective effect for retinal pigment epithelial cells against oxidative stress by hydrogen peroxide. The format is cell-based, human. To be noted: all-trans form content 280 μM, 14 h, then 750 μM hydrogen peroxide 2 h, FIG. 4, n=3. The text has this:
The involvement of oxidative stress in ophthalmologic diseases has been widely reported. Such involvement has been observed in, in addition to glaucoma and cataract, retinal diseases such as retinal diseases due to diabetes, hypertension, hyperlipemia, etc., age-related macular degeneration, retinopathy of prematurity, retinal vascular occlusion, retinal light damage, etc. (Nippon Ganka Gakkai Zasshi. 112, 22-29 (2008)). In the retina, the retinal pigment epithelium exists in an environment in which reactive oxygen easily generates (Invest Opthalmol V is Sci. 2006 July 47(7): 3164-3177). […]
After 2 hours of incubation, the cell culture supernatant was removed, and 200 μL of PBS was added to each well and promptly removed. Then, 100 μL of an equivalent mixture of a cell viability detection reagent Cell Titer-Glo (Promega) and PBS was added to each well and the luminescence produced by the reaction with ATP in living cells was measured with a luminometer (GloMax; Promega). The cell viability was calculated from the measured luminescence by the following formula and the cytoprotective effect of GGA against oxidative stress by hydrogen peroxide was examined. Cell viability(%)=100×[(luminescence of base- or GGA-treated group)/(luminescence of non-treated group)]

The next experiment has as its system PC12. Nature of the experiment: Protective effect against ischemic cell death induced by hypoxia and low glucose (Cell Titer-Glo cell viability). To be noted: 30 μM, 2 h pre-incubation, then low glucose/zero percent O2 8 h, FIG. 1, n=10, Tukey-Kramer. The format is cell-based, rat. An excerpt: The progress of visual impairment in glaucoma is associated with retinal ganglion cell (RGC) death due to blood flow failure occurring near the optic nerve (Folia Pharmacol. Jpn. 128, 255-258 (2006)). With the use of PC12, which is a typical neural cell line established from rat adrenal […] pheochromocytoma and used also as a model cell for the functional evaluation of RGC (J Neurosci Res. 2000 May 15; 60(4): 495-503), the cytoprotective effect of GGA against ischemic cell death induced by hypoxia and low glucose was evaluated.
Test samples were prepared as follows. The test substances were four types of GGAs that contain the all-trans form and the 5Z-mono-cis form at a weight ratio of 10:0, 8:2, 6:4, and 0:10, respectively. […]
After 8 hours of incubation, 100 μL of an equivalent mixture of a cell viability detection reagent Cell Titer-Glo (Promega) and PBS was added to each well and the luminescence produced by the reaction with ATP in living cells was measured with a luminometer (GloMax; Promega). The cell viability was calculated from the measured luminescence by the following formula and the cytoprotective effect of GGA against oxidative stress by hydrogen peroxide was examined. Cell viability(%)=100×[(luminescence of base- or GGA-treated group)/(luminescence of non-treated group)]
(ATP-based viability assays read luminescence as a measure of living cells.)

As for `CC(=O)CC/C=C(\C)CC/C=C(\C)CC/C=C(\C)CCC=C(C)C` [all-trans form, (5E,9E,13E)-6,10,14,18-tetramethyl-5,9,13,17-nonadecatetrae n-2-one], in the experiment on ARPE-19, the “cell viability compared with base-treated group” value is listed as “significantly higher cell viabilities”. Also, in the experiment with PC12, the “cytoprotective effect compared with GGA 6:4” value is reported as “significantly higher cytoprotective effects”.
